Measured values taken from ChEMBL document CHEMBL1137686, “Synthesis and anticonvulsant activity of new N-[(4-arylpiperazin-1-yl)-alkyl] derivatives of 3-phenyl-pyrrolidine-2,5-dione” (Eur J Med Chem, 2009).
Active and inactive are the calls of the source. The rule behind the calls is not given here.

What was measured:
Mus musculus [1] = experiment: Anticonvulsant activity in ip dosed mouse assessed as inhibition of maximal electroshock-induced seizures; assay type: functional
Mus musculus [2] = experiment: Anticonvulsant activity against maximal electroshock-induced seizures in ip dosed CF1 albino mouse assessed as time to peak effect; assay type: functional
Mus musculus [3] = experiment: Anticonvulsant activity in ip dosed CF1 albino mouse assessed as inhibition of maximal electroshock-induced seizures; assay type: functional
Mus musculus [4] = experiment: Anticonvulsant activity in ip dosed CF1 albino mouse assessed as inhibition of subcutaneous pentylenetetrazole-induced seizures; assay type: functional
[5] = Neurotoxicity in ip dosed CF1 albino mouse assessed as ability to maintain equilibrium for 1 min on […] by rotarod test; assay type: toxicity, organism-based; conditions: in vivo
Mus musculus [6] = species on record: Mus musculus; experiment: Protective index, ratio of TD50 for neurotoxicity in CF1 albino mouse to ED50 for inhibition of maximal electroshock-induced seizures in CF1 albino mouse; assay type: functional
Rattus norvegicus [7] = experiment: Anticonvulsant activity against maximal electroshock-induced seizures in po dosed rat assessed as time to peak effect; assay type: functional
Rattus norvegicus [8] = experiment: Anticonvulsant activity in po dosed rat assessed as inhibition of subcutaneous pentylenetetrazole-induced seizures; assay type: functional
[9] = Neurotoxicity in po dosed rat assessed as ability to maintain equilibrium for 1 min on […] by rotarod test; assay type: toxicity, organism-based; conditions: in vivo
Rattus norvegicus [10] = species on record: Rattus norvegicus; experiment: Protective index, ratio of TD50 for neurotoxicity in rat to ED50 for inhibition of maximal electroshock-induced seizures in rat; assay type: functional
Mus musculus [11] = experiment: Anticonvulsant activity in ip dosed CF1 albino mouse assessed as inhibition of maximal electroshock-induced seizures after 0.5 hrs; assay type: functional
Mus musculus [12] = experiment: Anticonvulsant activity in ip dosed CF1 albino mouse assessed as inhibition of maximal electroshock-induced seizures after 4 hrs; assay type: functional
Mus musculus [13] = experiment: Neurotoxicity in ip dosed CF1 albino mouse assessed as ability to maintain equilibrium for 1 min on […] after 4 hrs by rotarod test; assay type: toxicity, organism-based; conditions: in vivo
Mus musculus [14] = experiment: Neurotoxicity in ip dosed CF1 albino mouse assessed as ability to maintain equilibrium for 1 min on […] after 0.5 hrs by rotarod test; assay type: toxicity, organism-based; conditions: in vivo
Mus musculus [15] = experiment: Anticonvulsant activity in CF1 albino mouse assessed as protection against maximal electroshock-induced seizures at 30 mg/kg, po after 0.5 hrs; assay type: functional
Mus musculus [16] = experiment: Anticonvulsant activity in CF1 albino mouse assessed as protection against maximal electroshock-induced seizures at 30 mg/kg, po after 1 hr; assay type: functional
Mus musculus [17] = experiment: Anticonvulsant activity in CF1 albino mouse assessed as protection against maximal electroshock-induced seizures at 30 mg/kg, po after 2 hrs; assay type: functional
Mus musculus [18] = experiment: Anticonvulsant activity in CF1 albino mouse assessed as protection against maximal electroshock-induced seizures at 30 mg/kg, po after 4 hrs; assay type: functional
Mus musculus [19] = experiment: Neurotoxicity in CF1 albino mouse assessed as motor impairment at 30 mg/kg, po after 0.25 hrs by rotarod test; assay type: toxicity, organism-based; design: dose 30 mg/kg, route oral; conditions: in vivo
Mus musculus [20] = experiment: Neurotoxicity in CF1 albino mouse assessed as motor impairment at 30 mg/kg, po after 0.5 hrs by rotarod test; assay type: toxicity, organism-based; design: dose 30 mg/kg, route oral; conditions: in vivo
Mus musculus [21] = experiment: Neurotoxicity in CF1 albino mouse assessed as motor impairment at 30 mg/kg, po after 1 hr by rotarod test; assay type: toxicity, organism-based; design: dose 30 mg/kg, route oral; conditions: in vivo
Mus musculus [22] = experiment: Neurotoxicity in CF1 albino mouse assessed as motor impairment at 30 mg/kg, po after 2 hrs by rotarod test; assay type: toxicity, organism-based; design: dose 30 mg/kg, route oral; conditions: in vivo
Mus musculus [23] = experiment: Neurotoxicity in CF1 albino mouse assessed as motor impairment at 30 mg/kg, po after 4 hrs by rotarod test; assay type: toxicity, organism-based; design: dose 30 mg/kg, route oral; conditions: in vivo
Rattus norvegicus [24] = experiment: Anticonvulsant activity in po dosed rat assessed as inhibition of maximal electroshock-induced seizures; assay type: functional
Mus musculus [25] = experiment: Anticonvulsant activity in CF1 albino mouse assessed as inhibition of maximal electroshock-induced seizures at 300 mg/kg, ip after 0.5 hrs; assay type: functional, organism-based; design: dose 300 mg/kg
Mus musculus [26] = experiment: Neurotoxicity in CF1 albino mouse assessed as ability to maintain equilibrium for 1 min on […] at 300 mg/kg, ip after 4 hrs by rotarod test; assay type: toxicity, organism-based; design: dose 300 mg/kg, route intraperitoneal; conditions: in vivo
Mus musculus [27] = experiment: Anticonvulsant activity in CF1 albino mouse assessed as protection against maximal electroshock-induced seizures at 30 mg/kg, po after 0.25 hrs; assay type: functional

## O=C1CC2(CCc3ccccc3C2)C(=O)N1CCCN1CCN(c2cccc(C(F)(F)F)c2)CC1 (stereo not given)
Mus musculus [1]; Mus musculus, ip
  ED50: 23 mg/kg

## O=C1NC(=O)C(c2ccccc2)(c2ccccc2)N1 [PHENYTOIN]
Mus musculus [2]
  Time: 1 h
Mus musculus [3]
  ED50: 5.32 mg/kg
Mus musculus [4]
  ED50: > 500 mg/kg
[5]
  TD50 at 1 min: 41.2 mg/kg
Mus musculus [6]
  Ratio TD50/ED50: 6.52
Rattus norvegicus [7]
  Time: 2 h
Rattus norvegicus [8]
  ED50: > 500 mg/kg
[9]
  TD50 at 1 min: > 500 mg/kg
Rattus norvegicus [10]
  Ratio TD50/ED50: >21.6
Mus musculus [11]
  Activity: 30 mg/kg
Mus musculus [12]
  Activity: 30 mg/kg
Mus musculus [13]
  Activity: 100 mg/kg
Mus musculus [14]
  Activity: 100 mg/kg
Mus musculus [15]
  Activity: Active

## Cc1cccc(N2CCN(CCCN3C(=O)CC(c4ccccc4Cl)C3=O)CC2)c1 (stereo not given)
Mus musculus [1]
  Activity: 120 mg/kg

## O=C1CC(c2ccccc2C(F)(F)F)C(=O)N1CN1CCN(c2ccccc2)CC1 (stereo not given)
Mus musculus [16]
  Activity: 25%
Mus musculus [17]
  Activity: 50%
Mus musculus [18]
  Activity: 75%
Mus musculus [19]
  Activity: Non-toxic
Mus musculus [20]
  Activity: Non-toxic
Mus musculus [21]
  Activity: Non-toxic
Mus musculus [22]
  Activity: Non-toxic
Mus musculus [23]
  Activity: Non-toxic
Rattus norvegicus [7]
  Time: 8 h
Rattus norvegicus [24]
  ED50: 20.8 mg/kg
Rattus norvegicus [8]
  ED50: > 250 mg/kg
[9]
  TD50 at 1 min: > 500 mg/kg
Rattus norvegicus [10]
  Ratio TD50/ED50: >24.1
Mus musculus [12]
  Activity: 30 mg/kg
Mus musculus [25]
  Activity: inactive
Mus musculus [14]
  Activity: 300 mg/kg
Mus musculus [26]
  Activity: Non-toxic
Mus musculus [27]
  Activity: 25%
Mus musculus [15]
  Activity: inactive
